Measured values taken from ChEMBL document CHEMBL1201862, “PubChem BioAssay data set” (2004).
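All cell lines were grown in 96-well plates and treated with compound for 48 hours. Abbreviation: GI50, concentration required for 50% inhibition of growth.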 The source made the active and inactive calls. No stated cut-off is given here; in the data, active = GI50 up to about 1.1 µM and inactive = higher.

Experiments:
Assay in all cases: NCI tumour cell line growth inhibition, 48 h
OVCAR-5 = test system: OVCAR-5
K562 = test system: K562
HL-60 = test system: HL-60
KM12 = test system: KM12
SNB-75 = test system: SNB-75
NCI/ADR-RES = test system: NCI/ADR-RES
CCRF-CEM = test system: CCRF-CEM
NCI-H522 = test system: NCI-H522
Hs-578T = test system: Hs-578T
ACHN = test system: ACHN
A549 = test system: A549
MDA-MB-435 = test system: MDA-MB-435
SK-MEL-2 = test system: SK-MEL-2
HOP-62 = test system: HOP-62
SW-620 = test system: SW-620
BT-549 = test system: BT-549
SNB-19 = test system: SNB-19
SK-OV-3 = test system: SK-OV-3
SK-MEL-28 = test system: SK-MEL-28

SMILES	GI50 (OVCAR-5)	GI50 (K562)	GI50 (HL-60)	GI50 (KM12)	GI50 (SNB-75)	GI50 (NCI/ADR-RES)	GI50 (CCRF-CEM)	GI50 (NCI-H522)	GI50 (Hs-578T)	GI50 (ACHN)	GI50 (A549)	GI50 (MDA-MB-435)	GI50 (SK-MEL-2)	GI50 (HOP-62)	GI50 (SW-620)	GI50 (BT-549)	GI50 (SNB-19)	GI50 (SK-OV-3)	GI50 (SK-MEL-28)
CC1=NN(c2nc(N)nc(/C(C#N)=C\c3ccc(-c4ccc([N+](=O)[O-])cc4)o3)n2)C(C)(C)C1	> 100 µM (inactive)	> 100 µM (inactive)	17.1 µM (inactive)	> 100 µM (inactive)	14.2 µM (inactive)	> 100 µM (inactive)	0.807 µM (active)	> 100 µM (inactive)	62.2 µM (inactive)	> 100 µM (inactive)	> 100 µM (inactive)	> 100 µM (inactive)	> 100 µM (inactive)	1.78 µM (inactive)	> 100 µM (inactive)	> 100 µM (inactive)	> 100 µM (inactive)	> 100 µM (inactive)	> 100 µM (inactive)
COc1cc2ncnc(Nc3cccc(Br)c3)c2cc1OC	8.13 µM (inactive)	15.9 µM (inactive)	> 28.8 µM (inactive)	2.7 µM (inactive)	3.05 µM (inactive)	2.46 µM (inactive)	30.2 µM (inactive)	0.338 µM (active)	4.44 µM (inactive)	0.06 µM (active)	7.6 µM (inactive)	7.48 µM (inactive)	3.14 µM (inactive)	10.4 µM (inactive)	13.2 µM (inactive)	12.8 µM (inactive)	15.2 µM (inactive)	0.284 µM (active)	4.52 µM (inactive)
CC(=N\N)/C(C)=N/N=C(C)/C(C)=N/N=C(C)/C(C)=N/N=C(C)/C(C)=N/N	> 100 µM (inactive)	37.8 µM (inactive)	> 100 µM (inactive)	> 100 µM (inactive)	> 100 µM (inactive)	> 100 µM (inactive)	> 100 µM (inactive)	> 100 µM (inactive)	> 100 µM (inactive)	–	> 100 µM (inactive)	> 100 µM (inactive)	> 100 µM (inactive)	> 100 µM (inactive)	> 100 µM (inactive)	97.1 µM (inactive)	> 100 µM (inactive)	> 100 µM (inactive)	> 100 µM (inactive)
CCn1cc2c(=O)n3ncn(-c4ccc(Br)cc4)c3nc2n1	> 100 µM (inactive)	> 100 µM (inactive)	> 100 µM (inactive)	> 100 µM (inactive)	21 µM (inactive)	> 100 µM (inactive)	> 100 µM (inactive)	> 100 µM (inactive)	29.9 µM (inactive)	> 100 µM (inactive)	> 100 µM (inactive)	> 100 µM (inactive)	> 100 µM (inactive)	38.5 µM (inactive)	> 100 µM (inactive)	> 100 µM (inactive)	49.9 µM (inactive)	> 100 µM (inactive)	> 100 µM (inactive)
CO[C@H]1O[C@@H]2CO[C@@H](c3ccccc3)O[C@H]2C[C@]12CCC/C=C\CO2	60.1 µM (inactive)	13.9 µM (inactive)	15.9 µM (inactive)	29.5 µM (inactive)	22.5 µM (inactive)	21 µM (inactive)	10.4 µM (inactive)	11.5 µM (inactive)	16.4 µM (inactive)	15.5 µM (inactive)	33.6 µM (inactive)	12.2 µM (inactive)	15.9 µM (inactive)	16.9 µM (inactive)	20.6 µM (inactive)	12.6 µM (inactive)	22.8 µM (inactive)	37.7 µM (inactive)	13.4 µM (inactive)
Brc1ccc2nc(-c3cccs3)nc(N3CCN(c4ccccc4)CC3)c2c1	> 100 µM (inactive)	> 100 µM (inactive)	> 100 µM (inactive)	> 100 µM (inactive)	> 100 µM (inactive)	> 100 µM (inactive)	–	> 100 µM (inactive)	> 100 µM (inactive)	> 100 µM (inactive)	> 100 µM (inactive)	> 100 µM (inactive)	> 100 µM (inactive)	> 100 µM (inactive)	> 100 µM (inactive)	> 100 µM (inactive)	> 100 µM (inactive)	> 100 µM (inactive)	> 100 µM (inactive)
O=c1[nH]nc(Cc2ccc(Cl)cc2)n1/N=C\CC/C=N\n1c(Cc2ccc(Cl)cc2)n[nH]c1=O	> 100 µM (inactive)	> 88.7 µM (inactive)	> 24.2 µM (inactive)	> 100 µM (inactive)	7.96 µM (inactive)	22.2 µM (inactive)	–	25.1 µM (inactive)	11.4 µM (inactive)	56 µM (inactive)	> 100 µM (inactive)	> 53.6 µM (inactive)	29.8 µM (inactive)	8.83 µM (inactive)	> 62.2 µM (inactive)	12.2 µM (inactive)	32.9 µM (inactive)	31.5 µM (inactive)	23.6 µM (inactive)
COc1cc(C2c3cc4c(c(O)c3C(=O)C3CCC(=O)N32)OCO4)cc(OC)c1OC (configuration not stated)	> 100 µM (inactive)	34.9 µM (inactive)	45 µM (inactive)	51.9 µM (inactive)	30 µM (inactive)	89.1 µM (inactive)	31.3 µM (inactive)	16.9 µM (inactive)	37.7 µM (inactive)	75 µM (inactive)	18.2 µM (inactive)	18.2 µM (inactive)	79.8 µM (inactive)	82.8 µM (inactive)	45.9 µM (inactive)	32.7 µM (inactive)	> 100 µM (inactive)	46 µM (inactive)	49.5 µM (inactive)
C[C@]12CC[C@H](O)CC1=CC[C@@H]1[C@@H]2CC[C@]2(C)C(=O)/C(=C/c3ccc([N+](=O)[O-])cc3)C[C@@H]12	19.2 µM (inactive)	59.6 µM (inactive)	36.4 µM (inactive)	33.7 µM (inactive)	3.52 µM (inactive)	16.2 µM (inactive)	> 100 µM (inactive)	12.2 µM (inactive)	7.83 µM (inactive)	13.2 µM (inactive)	13.3 µM (inactive)	52.5 µM (inactive)	17.7 µM (inactive)	5.9 µM (inactive)	47.4 µM (inactive)	23.3 µM (inactive)	10.4 µM (inactive)	8.93 µM (inactive)	22.1 µM (inactive)
CCC(C)c1c(Cl)nc(Cl)nc1Cl (configuration not stated)	16.7 µM (inactive)	2.2 µM (inactive)	2.99 µM (inactive)	1.78 µM (inactive)	13.8 µM (inactive)	24.2 µM (inactive)	0.1 µM (active)	0.582 µM (active)	21.6 µM (inactive)	3.37 µM (inactive)	> 10 µM (inactive)	2.77 µM (inactive)	20.9 µM (inactive)	4.72 µM (inactive)	3.71 µM (inactive)	1.75 µM (inactive)	16 µM (inactive)	36.2 µM (inactive)	7.18 µM (inactive)
O/N=N/c1ccc2ccccc2n1	> 100 µM (inactive)	> 100 µM (inactive)	> 100 µM (inactive)	> 100 µM (inactive)	75.5 µM (inactive)	> 100 µM (inactive)	> 100 µM (inactive)	> 100 µM (inactive)	> 100 µM (inactive)	> 100 µM (inactive)	> 100 µM (inactive)	> 100 µM (inactive)	> 100 µM (inactive)	> 100 µM (inactive)	> 100 µM (inactive)	> 100 µM (inactive)	> 100 µM (inactive)	> 100 µM (inactive)	> 100 µM (inactive)
O=C(NCCc1ccc(F)cc1)c1cc(/C=C/c2cc(O)ccc2O)ccc1O	6.64 µM (inactive)	3.03 µM (inactive)	2.38 µM (inactive)	6.05 µM (inactive)	4.57 µM (inactive)	2.69 µM (inactive)	1.61 µM (inactive)	1.52 µM (inactive)	4.26 µM (inactive)	2.01 µM (inactive)	11.1 µM (inactive)	3.78 µM (inactive)	2.67 µM (inactive)	6.11 µM (inactive)	7.64 µM (inactive)	1.44 µM (inactive)	5.45 µM (inactive)	13 µM (inactive)	3.21 µM (inactive)
COc1ccc(Nc2nc(N)c(C(=O)c3ccc(Cl)cc3)s2)cc1	0.505 µM (active)	< 0.01 µM (active)	< 0.01 µM (active)	0.0432 µM (active)	< 0.01 µM (active)	< 0.01 µM (active)	< 0.01 µM (active)	< 0.01 µM (active)	< 0.01 µM (active)	< 0.01 µM (active)	< 0.0224 µM (active)	< 0.01 µM (active)	< 0.01 µM (active)	< 0.01 µM (active)	< 0.01 µM (active)	< 0.0135 µM (active)	< 0.01 µM (active)	< 0.01 µM (active)	1.02 µM (active)
Nc1nc(F)nc2c1ncn2C1OC(CO)C(O)C1O (configuration not stated)	> 100 µM (inactive)	> 76.6 µM (inactive)	42.5 µM (inactive)	> 100 µM (inactive)	> 100 µM (inactive)	3.78 µM (inactive)	0.344 µM (active)	32.7 µM (inactive)	> 100 µM (inactive)	34 µM (inactive)	43 µM (inactive)	35.7 µM (inactive)	> 100 µM (inactive)	5.12 µM (inactive)	69 µM (inactive)	57.5 µM (inactive)	19.2 µM (inactive)	23.2 µM (inactive)	> 77.3 µM (inactive)
CC(NC(=O)/C(C#N)=C/c1ccc2[nH]ccc2c1)c1ccccc1 (configuration not stated)	17.5 µM (inactive)	23.8 µM (inactive)	18.7 µM (inactive)	17.3 µM (inactive)	31.4 µM (inactive)	28.8 µM (inactive)	17.5 µM (inactive)	12.8 µM (inactive)	31.6 µM (inactive)	21.6 µM (inactive)	24 µM (inactive)	13.9 µM (inactive)	20.8 µM (inactive)	18.2 µM (inactive)	18.3 µM (inactive)	11.2 µM (inactive)	19.6 µM (inactive)	21.9 µM (inactive)	19.8 µM (inactive)
